Assay results from patent publication US6924278B2, “Aroyl-piperazine derivatives, their preparation and their use as tachykinin antagonists” (Fujisawa Pharmaceutical Co., Ltd., priority 1997, dated 2005).
Where a name gives a salt, the structure may show the parent alone.

Experiments:
h-NK1 receptors = biological target: T1, h-NK1 receptors (Homo sapiens, UniProt P25103); assay: Evaluation of NK1 antagonist transport efficiency to the central nervous system using a h-NK1 receptor binding assay (brain extract after i.v. dosing of rats); conditions: 5 min; compound extracted from brain of male SD rats 5 min after i.v. injection at the dose of 1 mg/kg; CHO cell membranes expressing h-NK1; read-out: inhibition rate of 125I-BH-Substance P binding to h-NK1 receptors
T1 construct: expressed in transfected cells; host or cells: CHO cells (permanent expression), crude cell membranes
Method: A. Evaluation of NK1 Antagonist Transport Efficiency to the Cental Nervous System using a h-NK1 Receptor Binding Assay
(1) Administration of Test Compound and Extraction of the Compound from Brain
Male SD rats were given an i.v. injection of a solution containing a test compound (1 mg/kg). 5 Min later the animals were anesthetized by ether, bled and perfused through the aorta ascendens with 20 ml of saline. The brain was rapidly removed, weighed and homogenized in 4 vol. ice-cold distilled water by using Polytoron (KINEMATICA). To extract the test compound, 500 μl of the homogenate, 100 μl of methanol, 500 μl of 0.1 N NaOH and 4 ml of ethyl acetate were mixed by shaking for 10 min at room temperature. The organic phase (2.5 ml) was recovered by centrifugation at 3,000 rpm for 10 min, dried and dissolved in dimethyl sulfoxide.
(2) h-NK1 Receptor Binding Assay
(a) Crude CHO Cell Membrane Preparation
CHO cells permanently expressing h-NK1 receptors were harvested and homogenized with a Dounce homogenizer at 4° C. in a buffer (0.25 M sucrose, 25 mM Tris-HCl (pH 7.4), 10 mM MgCl2, 1 mM EDTA, 5 μg/ml p-APMSF). The homogenate was centrifuged (500×g, 10 min), and the pellet was resuspended in the same buffer, homogenized, and centrifuged. The two supernatants were combined and centrifuged (100,000×g, 1 hour). The crude cell membranes thus isolated were resuspended in a buffer (25 mM Tris-HCl (pH 7.4), 10 mM MgCl2, 1 mM. EDTA, 5 μg/ml p-APMSF) and stored at −80° C. until use.
(b) ^125I-BH-Substance P Binding to the Prepared Membrane
Cell membranes (6 μg/ml) were incubated with ^125I-BH-Substance P (0.1 nM) with or without the extracted compounds in 0.25 ml of a medium (50 mM Tris-HCl (pH 7.4), 5 mM MnCl2, 20 μg/ml chymostatin, 40 μg/ml bacitracin, 4 μg/ml leupeptin, 5 μg/ml p-APMSF, 200 μg/ml BSA) at 22° C. for 90 min. At the end of the incubation period, the contents were quickly filtered through a Blue Mat 11740 filter (pretreated with 0.1% polyethylenimine for 3 hours prior to use) by using SKATRON Cell Harvester. The filter was then washed with a washing buffer (50 mM Tris-HCl (pH 7.4), 5 mM MnCl2). The radioactivity was counted by using an auto gamma counter (Packard RIASTAR 5420A). All data presented are specific binding defined as that displaceable by 3 μM unlabeled Substance P.

T1 sequence (P25103 whole entry): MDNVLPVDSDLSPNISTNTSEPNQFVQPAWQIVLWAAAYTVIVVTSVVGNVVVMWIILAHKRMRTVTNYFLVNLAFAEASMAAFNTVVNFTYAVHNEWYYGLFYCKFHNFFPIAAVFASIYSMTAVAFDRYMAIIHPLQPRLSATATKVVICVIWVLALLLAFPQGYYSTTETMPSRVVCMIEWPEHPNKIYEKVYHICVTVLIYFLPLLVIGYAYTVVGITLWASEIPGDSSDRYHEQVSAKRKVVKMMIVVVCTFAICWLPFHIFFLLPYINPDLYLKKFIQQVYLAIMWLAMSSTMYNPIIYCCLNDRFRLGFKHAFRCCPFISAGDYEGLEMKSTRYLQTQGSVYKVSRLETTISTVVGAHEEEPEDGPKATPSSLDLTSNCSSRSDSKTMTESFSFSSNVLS

inhibition at 1 mg/kg (h-NK1 receptors)	melting point	Compound
> 80%	170 to 174 °C	Cc1ccc(C[C@@H]2CN(C/C=C/c3cccnc3)CCN2C(=O)c2cc(C(F)(F)F)cc(C(F)(F)F)c2)cc1C.Cl.Cl [6-(1), (2R)-1-[3,5-Bis(trifluoromethyl)benzoyl]-2-(3,4-dimethylbenzyl)-4-[(E)-3-(3-pyridyl)-2-propenyl]piperazine dihydrochloride]
> 80%	> 230 °C	Cc1ccc(C[C@@H]2CN(C/C=C/CN3CCOCC3)CCN2C(=O)c2cc(Cl)cc(Cl)c2)cc1C.Cl.Cl [16-(2), (2R)-1-(3,5-Dichlorobenzoyl)-2-(3,4-dimethylbenzyl)-4-[(E)-4-morpholino-2-butenyl]piperazine dihydrochloride]
> 80%	195 to 203 °C	Cl.Cl.O=C(c1cc(C(F)(F)F)cc(C(F)(F)F)c1)N1CCN(C/C=C/c2cccnc2)C[C@H]1Cc1c[nH]c2ccccc12 [56-(2), (2R)-1-[3,5-Bis(trifluoromethyl)benzoyl]-2-[(1H-indol-3-yl)methyl]-4-[(2E)-3-(3-pyridyl)-2-propenyl]piperazine dihydrochloride]
> 80%		Cc1ccc(C[C@@H]2CN(CC#CCN3CCOCC(F)C3)CCN2C(=O)c2cc(C(F)(F)F)cc(C(F)(F)F)c2)cc1C (stereo partly drawn) [70-(2), (2R)-1-[3,5-Bis(trifluoromethyl)benzoyl]-2-(3,4-dimethylbenzyl)-4-[4-(tetrahydro-6-fluoro-1,4-oxazepin-4(5H)-yl)-2-butynyl]piperazine dihydrochloride]
> 80%	155 to 160 °C	COCC1(C)COCCN1CC#CCN1CCN(C(=O)c2cc(C(F)(F)F)cc(C(F)(F)F)c2)[C@H](Cc2ccc(C)c(C)c2)C1.Cl.Cl (stereo partly drawn) [71-(1), (2R)-1-[3,5-Bis(trifluoromethyl)benzoyl]-2-(3,4-dimethylbenzyl)-4-[4-(3-methoxymethyl-3-methylmorpholino)-2-butynyl]piperazine dihydrochloride]
> 80%	160 to 165 °C	Cc1ccc(C[C@@H]2CN(CC#CCN3[C@@H](C)COC[C@@H]3C)CCN2C(=O)c2cc(C(F)(F)F)cc(C(F)(F)F)c2)cc1C.Cl.Cl [71-(3), (2R)-1-[3,5-Bis(trifluoromethyl)benzoyl]-2-(3,4-dimethylbenzyl)-4-[4-((3S,5S)-3,5-dimethylmorpholino)-2-butynyl]piperazine dihydrochloride]
> 80%	85 to 95 °C	COC[C@@H]1CN(CC#CCN2CCN(C(=O)c3cc(C(F)(F)F)cc(C(F)(F)F)c3)[C@H](Cc3ccc(C)c(C)c3)C2)CCO1.Cl.Cl [71-(5), (2R)-1-[3,5-Bis(trifluoromethyl)benzoyl]-2-(3,4-dimethylbenzyl)-4-[4-((2S)-2-methoxymethylmorpholino)-2-butynyl]piperazine dihydrochloride]
> 80%	80 to 90 °C	COC[C@H]1CN(CC#CCN2CCN(C(=O)c3cc(C(F)(F)F)cc(C(F)(F)F)c3)[C@H](Cc3ccc(C)c(C)c3)C2)CCO1.Cl.Cl [71-(6), (2R)-1-[3,5-Bis(trifluoromethyl)benzoyl]-2-(3,4-dimethylbenzyl)-4-[4-((2R)-2-methoxymethylmorpholino)-2-butynyl]piperazine dihydrochloride]
> 80%		CC[C@H]1COCCN1CC#CCN1CCN(C(=O)c2cc(C(F)(F)F)cc(C(F)(F)F)c2)[C@H](Cc2c[nH]c3ccccc23)C1 [73-(2), (2R)-1-[3,5-Bis(trifluoromethyl)benzoyl]-4-[4-((3S)-3-ethylmorpholino)-2-butynyl]-2-[(1H-indol-3-yl)methyl]piperazine dihydrochloride]
> 80%	130 to 140 °C	COC[C@H]1COCCN1C/C=C/CN1CCN(C(=O)c2cc(C(F)(F)F)cc(C(F)(F)F)c2)[C@H](Cc2ccc(C)c(C)c2)C1.Cl.Cl [73-(3), (2R)-1-[3,5-Bis(trifluoromethyl)benzoyl]-2-(3,4-dimethylbenzyl)-4-[(E)-4-((3S)-3-methoxymethylmorpholino)-2-butenyl]piperazine dihydrochloride]
> 80%	197 °C	Cc1ccc(C[C@@H]2CN(CCCN3CCOCC3(C)C)CCN2C(=O)c2cc(C(F)(F)F)cc(C(F)(F)F)c2)cc1C.Cl.Cl [78-(4), (2R)-1-[3,5-Bis(trifluoromethyl)benzoyl]-2-(3,4-dimethylbenzyl)-4-[3-(3,3-dimethylmorpholino)propyl]piperazine dihydrochloride]
> 80%		CC[C@@H]1COCCN1CCN1CCN(C(=O)c2cc(C(F)(F)F)cc(C(F)(F)F)c2)[C@H](Cc2ccc(C)c(C)c2)C1 [80-(1), (2R)-1-[3,5-Bis(trifluoromethyl)benzoyl]-2-(3,4-dimethylbenzyl)-4-[2-((3R)-3-ethylmorpholino)ethyl]piperazine dihydrochloride]
> 80%		CC[C@@H]1COCCN1CCN1CCN(C(=O)c2cc(C(F)(F)F)cc(C(F)(F)F)c2)[C@H](Cc2c[nH]c3ccccc23)C1 [81-(10), (2R)-1-[3,5-Bis(trifluoromethyl)benzoyl]-4-[2-((3R)-3-ethylmorpholino)ethyl]-2-[(1H-indol-3-yl)methyl]piperazine dihydrochloride]
> 80%		COc1ccc(CC2CN(CC#CCN3CCOCC3(C)C)CCN2C(=O)c2cc(C(F)(F)F)cc(C(F)(F)F)c2)cc1C (stereo not drawn) [85-(3), 1-[3,5-Bis(trifluoromethyl)benzoyl]-4-[4-(3,3-dimethylmorpholino)-2-butynyl]-2-(4-methoxy-3-methylbenzyl)piperazine dihydrochloride]
> 80%		Cc1ccc(C[C@@H]2CN(CC#CCN3CCOCC3(C)C)CCN2C(=O)c2cc(N(C)C)cc(C(F)(F)F)c2)cc1C [90-(5), (2R)-1-[3-(Dimethylamino)-5-(trifluoromethyl)benzoyl]-2-(3,4-dimethylbenzyl)-4-[4-(3,3-dimethylmorpholino)-2-butynyl]piperazine dihydrochloride]
> 80%		O=C(c1cc(C(F)(F)F)cc(C(F)(F)F)c1)N1CCN(CC#Cc2cccnc2)C[C@H]1Cc1c[nH]c2ccccc12 [Example 1-(1), (2R)-1-[3,5-bis(trifluoromethyl)benzoyl]-2-[(1H-indol-3-yl)methyl]-4-[3-(3-pyridyl)-2-propynyl]piperazine]
> 80%		Cc1ccc(C[C@@H]2CN(CCOCCN3CCOCC3)CCN2C(=O)c2cc(C(F)(F)F)cc(C(F)(F)F)c2)cc1C [Example 22, (2R)-1-[3,5-Bis(trifluoromethyl)benzoyl]-2-(3,4-dimethylbenzyl)-4-[2-(2-morpholinoethoxy)ethyl]piperazine dihydrochloride]
> 80%		O=C(c1cc(C(F)(F)F)cc(C(F)(F)F)c1)N1CCN(CC#CCNCc2cccnc2)C[C@H]1Cc1ccc2ccccc2c1 [Example 30, (2R)-1-[3,5-bis(trifluoromethyl)benzoyl]-4-[4-(3-pyridylmethylamino)-2-butynyl]-2-(2-naphthylmethyl)piperazine trihydrochloride]
> 80%		CC[C@H]1COCCN1CC#CCN1CCN(C(=O)c2cc(C(F)(F)F)cc(C(F)(F)F)c2)[C@H](Cc2ccc(C)c(C)c2)C1 [Example 38, (2R)-1-[3,5-bis(trifluoromethyl)benzoyl]-4-[4-((3S)-3-ethylmorpholino)-2-butynyl]-2-(3,4-dimethylbenzyl)piperazine dihydrochloride]
> 80%		COC[C@H]1COCCN1CCCCN1CCN(C(=O)c2cc(C(F)(F)F)cc(C(F)(F)F)c2)[C@H](Cc2ccc(C)c(C)c2)C1 [Example 82, (2R)-1-[3,5-bis(trifluoromethyl)benzoyl]-2-(3,4-dimethylbenzyl)-4-[4-((3S)-3-methoxymethylmorpholino)butyl]piperazine dihydrochloride]
> 80%		CC1(C)COCCN1CC#CCN1CCN(C(=O)c2cc(C(F)(F)F)cc(C(F)(F)F)c2)C(Cc2ccc3c(c2)OCO3)C1 (stereo not drawn) [Example 84, 1-[3,5-bis-(trifluoromethyl)benzoyl]-4-[4-(3,3-dimethylmorpholino)-2-butynyl]-2-(3,4-methylenedioxybenzyl)piperazine dihydrochloride]
